For 13 compounds, growth results are on record in ChEMBL document CHEMBL3046904, “Synthesis, characterization, bioactivity, and POM analyses of isothiochromeno[3,4-e][1,2]oxazines” (2013).

Assay type in all cases: functional
In one assay the test system is SF-268. As to the kind of experiment: Cytotoxicity against Homo sapiens (human) SF268 assessed as cell growth at 10^-4 M after 48 hr by Alamar Blue assay. The note with it: SF-268, 48 h, read-out: Activity. (In general: The colour change of resazurin is a common sign of viable cells or microbes.)
The next assay relates to MCF7. As to the kind of experiment: Cytotoxicity against Homo sapiens (human) MCF7 assessed as cell growth at 10^-4 M after 48 hr by Alamar Blue assay. To be noted: MCF7, 48 h, read-out: Activity.
For another assay, the system named is NCI-H460. As to the kind of experiment: Cytotoxicity against Homo sapiens (human) NCI-H460 assessed as cell growth at 10^-4 M after 48 hr by Alamar Blue assay. To be noted: NCI-H460, 48 h, read-out: Activity.

Structures are written as SMILES.

For `Cc1ccc(C2=C3SC=c4ccccc4=C3ON=C2c2ccccc2)cc1`, the growth at 100 µM with SF-268 was 69%; in the assay on MCF7, 41%; with NCI-H460, 94%.
The like results for `COc1ccc(C2=NOC3=c4ccccc4=CSC3=C2c2ccc(C)cc2)cc1` were, in that order, 97%, 86% and 96%.
The matching figures for `Cc1ccc(C2=C3SC=c4ccccc4=C3ON=C2c2ccc([N+](=O)[O-])cc2)cc1`: 83%, 97% and 99%.
The like results for `COc1ccc(C2=C3SC=c4ccccc4=C3ON=C2c2ccc(C)cc2)cc1` were, in that order, 103%, 98% and 84%.
Turning to `COc1ccc(C2=NOC3=c4ccccc4=CSC3=C2c2ccc(OC)cc2)cc1`, the growth at 100 µM with SF-268 came out at 105%; with MCF7, 116%; in the assay with NCI-H460, 102%.
The matching figures for `COc1ccc(C2=C3SC=c4ccccc4=C3ON=C2c2ccc(Cl)cc2)cc1`: 102%, 51% and 85%.
The matching figures for `Cc1ccc(C2=NOC3=c4ccccc4=CSC3=C2c2ccc([N+](=O)[O-])cc2)cc1`: 111%, 99% and 97%.
The matching figures for `O=[N+]([O-])c1ccc(C2=C3SC=c4ccccc4=C3ON=C2c2ccc(Cl)cc2)cc1`: 104%, 85% and 97%.
For `C1=c2ccccc2=C2ON=C(c3ccccc3)C(c3ccccc3)=C2S1`, the growth at 100 µM in the assay with SF-268 is 97%; in the assay with MCF7 it was 104%; in the assay with NCI-H460, 94%.
The like results for `Cc1ccc(C2=NOC3=c4ccccc4=CSC3=C2c2ccccc2)cc1` were, in that order, 66%, 51% and 92%.
Turning to `COc1ccc(C2=NOC3=c4ccccc4=CSC3=C2c2ccccc2)cc1`, the growth at 100 µM was found to be 106% with SF-268, 97% with MCF7 and 101% with NCI-H460.
Take `O=[N+]([O-])c1ccc(C2=NOC3=c4ccccc4=CSC3=C2c2ccccc2)cc1`: the growth at 100 µM was determined as 101% in the assay with SF-268, 62% in the assay on MCF7 and 100% with NCI-H460.
Regarding `Clc1ccc(C2=NOC3=c4ccccc4=CSC3=C2c2ccccc2)cc1`, the growth at 100 µM with SF-268 was 95%; with MCF7, 95%; with NCI-H460 it was 92%.
